Among the data in patent EP3325465B1, “PESTICIDALLY ACTIVE PYRAZOLE DERIVATIVES” (Syngenta Participations AG, priority 2015, dated 2017) are mortality and pest or weed control values, retold here.

Like-named read-outs stand apart in the source and are kept apart here.

Assay type in all cases: in vivo
Test [1] deals with Spodoptera littoralis (Egyptian cotton leaf worm). Briefly: Spodoptera littoralis cotton leaf disc spray test, L1 larvae. As to conditions: foliar, 72 h. The text has this: (§1) The pesticidal/insecticidal properties of the compounds according to embodiments 1 or 2 can be illustrated via the following tests: Spodoptera littoralis (Egyptian cotton leaf worm) • Cotton leaf discs were placed onto agar in 24-well microtiter plates and sprayed with aqueous test solutions prepared from 10'000 ppm DMSO stock solutions. After drying the leaf discs were infested with five L1 larvae. […] Plutella xylostella (Diamond back moth): 24-well microtiter plates with artificial diet were treated with aqueous test solutions prepared from 10'000 ppm DMSO stock solutions by pipetting. After drying, the plates were infested with L2 larvae (10 to 15 per well). The samples were assessed for mortality and growth inhibition in comparison to untreated samples 5 days after infestation. […] Diabrotica balteata, (Corn root worm) • Maize sprouts placed onto an agar layer in 24-well microtiter plates were treated with aqueous test solutions prepared from 10'000 ppm DMSO stock solutions by spraying. After drying, the plates were infested with L2 larvae (6 to 10 per well). […] Thrips tabaci (Onion thrips): Sunflower leaf discs were placed on agar in 24-well microtiter plates and sprayed with aqueous test solutions prepared from 10'000 ppm DMSO stock solutions. After drying the leaf discs were infested with a thrips population of mixed ages. The samples were assessed for mortality 6 days after infestation. […] Tetranychus urticae (Two-spotted spider mite): Bean leaf discs on agar in 24-well microtiter plates were sprayed with aqueous test solutions prepared from 10'000 ppm DMSO stock solutions. After drying the leaf discs were infested with a mite population of mixed ages. The samples were assessed for mortality on mixed population (mobile stages) 8 days after infestation. […] Euschistus heros (Neotropical Brown Stink Bug): • Two weeks old soybean plants were sprayed in a turn table spray chamber with the diluted spray solutions. After drying 2 soybean seeds were added and plants were infested with 10 N2 nymphs of the neotropical brown stink bug Euschistus heros in plastic test boxes. The samples were assessed for mortality in comparison to untreated samples 5 days after infestation. • The following compounds gave at least 80% mortality of Euschistus heros at an application rate of 12.5 ppm: Compounds 3 , 4 , 8 , 39 , 43 , 44 , 46 , 75 , 76 , 77 , 78 , 79 , 80 , 81 , 82 , 88 , 90 , 93 and 95 . Myzus persicae (Green peach aphid): Sunflower leaf discs were placed on agar in a 24-well microtiter plate and sprayed with test solutions at an application rate of 200 ppm. After drying, the leaf discs were infested with an aphid population of mixed ages. After an incubation period of 6 DAT, samples were checked for mortality. The following compounds gave at least 50% mortality of Myzus persicae: Compounds 3 , 4 , 8 , 43 , 44 , 75 , 76 , 77 , 80 , 81 , 90 and 92 . Myzus persicae (Green peach aphid): • Test compounds were applied by pipette into 24 well plates and mixed with Sucrose solution. Application rate: 12.5ppm. The plates were closed with a stretched parafilm. A plastic stencil with 24 holes is placed onto the plate and infested pea seedlings were placed directly on the Parafilm. The infested plate is closed with a gel blotting paper and another plastic stencil and then turned upside down. […]

Test [2] relates to Plutella xylostella (Diamond back moth). Briefly: Plutella xylostella artificial diet test, L2 larvae. As to conditions: 120 h, application rate of 200 ppm, mortality and growth inhibition 5 days after infestation.
Excerpt: as §1

Test [3] has as its system Diabrotica balteata, (Corn root worm). Briefly: Diabrotica balteata maize sprout spray test, L2 larvae. To be noted: 96 h.
Excerpt: as §1

Test [4] deals with Thrips tabaci (Onion thrips). Briefly: Thrips tabaci sunflower leaf disc spray test. To be noted: foliar, 144 h, application rate of 200 ppm, mortality 6 days after infestation, mixed ages.
Excerpt: as §1

The test system of test [5] is Myzus persicae (Green peach aphid). Briefly: Myzus persicae sucrose solution / Parafilm feeding test. To be noted: 120 h, read-out: mortality of Myzus persicae.
Excerpt: as §1

For test [6], the system named is Tetranychus urticae (Two-spotted spider mite). Briefly: Tetranychus urticae bean leaf disc spray test. As to conditions: foliar, 192 h, application rate of 200 ppm, mortality on mixed population (mobile stages) 8 days after infestation.
Excerpt: as §1

Test [7] deals with Euschistus heros (Neotropical Brown Stink Bug). Briefly: Euschistus heros soybean plant spray test, N2 nymphs. As to conditions: 120 h, application rate of 12.5 ppm, 5 days after infestation, N2 nymphs, read-out: mortality of Euschistus heros.
Excerpt: as §1

Test [8] has as its system Myzus persicae (Green peach aphid). Briefly: Myzus persicae sunflower leaf disc spray test. To be noted: foliar, 144 h, application rate of 200 ppm, leaf disc spray, 6 DAT, read-out: mortality of Myzus persicae.
Excerpt: as §1

The mark [9] stands for this setting: application rate of 200 ppm, 3 days after infestation, L1 larvae, read-out: mortality.
Where [10] appears, read: application rate of 200 ppm, 4 days after infestation, L2 larvae, read-out: mortality.
Where [11] appears, read: Application rate: 12.5ppm, sucrose solution, 5 days after infestation.

One may read the mortality as the percentage killed. The pest or weed control is how far the test organism was held down. Read a high pest or weed control as a strong effect. For `Cn1nc(C(F)(F)C(F)(F)F)c(C(F)(F)F)c1-c1noc(-c2ccc(Cl)c(C(=O)NC3(C#N)CC3)c2)n1` [Compound 10, 2-Chloro-N-(1-cyanocyclopropyl)-5-[3-[2-methyl-5-(1,1,2,2,2-pentafluoroethyl)-4-(trifluoromethyl)pyrazol-3-yl]-1,2,4-oxadiazol-5-yl]benzamide], the mortality at 200 ppm in test [1] and in test [3] was ≥ 80% in each case. Also, the pest or weed control at 200 ppm in test [2] and in test [4] was ≥ 80% in each case. Also, in test [5], the mortality at 12.5 ppm was ≥ 80%.
Turning to `Cn1nc(-c2ccc(Cl)c(C(=O)NC3CC3)c2)cc1-c1c(C(F)(F)F)c(C(F)(F)C(F)(F)F)nn1C` [Compound 39, 2-chloro-N-cyclopropyl-5-[1-methyl-5-[2-methyl-5-(1,1,2,2,2-pentafluoroethyl)-4-(trifluoromethyl)pyrazol-3-yl]pyrazol-3-yl]benzamide], the mortality at 200 ppm in test [1] (setting [9]) and in test [3] (setting [10]) was ≥ 80% throughout. Further, the pest or weed control at 200 ppm in test [2], in test [4] and in test [6] was ≥ 80% each time. In addition, the mortality at 12.5 ppm in test [7] and in test [5] (setting [11]) was ≥ 80% in each case.
Take `CC(C)NC(=O)c1cc(-c2cc(-c3c(C(F)(F)F)c(C(F)(F)C(F)(F)F)nn3C)no2)ccc1Cl` [Compound 93, 2-chloro-N-isopropyl-5-[3-[2-methyl-5-(1,1,2,2,2-pentafluoroethyl)-4-(trifluoromethyl)pyrazol-3-yl]isoxazol-5-yl]benzamide]: the mortality at 200 ppm in test [1] (setting [9]) and in test [3] (setting [10]) was ≥ 80% in each case. Further, the pest or weed control at 200 ppm in test [2], in test [4] and in test [6] was ≥ 80% throughout. The mortality at 12.5 ppm in test [7] and in test [5] (setting [11]) was ≥ 80% in each case.
`CNC(=O)c1cc(-c2cc(-c3c(C(F)(F)F)c(C(F)(F)C(F)(F)F)nn3C)no2)ccc1Cl` [Compound 92, 2-chloro-N-methyl-5-[3-[2-methyl-5-(1,1,2,2,2-pentafluoroethyl)-4-(trifluoromethyl)pyrazol-3-yl]isoxazol-5-yl]benzamide]: the mortality at 200 ppm in test [1] (setting [9]) was ≥ 80%; in test [3] (setting [10]), ≥ 80%; in test [8], ≥ 50%. In addition, the pest or weed control at 200 ppm in test [2], in test [4] and in test [6] was ≥ 80% throughout. In test [5] (setting [11]), the mortality at 12.5 ppm is ≥ 80%.
As for `Cn1nc(C(F)(F)C(F)(F)F)c(C(F)(F)F)c1-c1cc(-c2ccc(Cl)c(C(=O)NC3CC3)c2)on1` [Compound 8, 2-chloro-N-cyclopropyl-5-[3-[2-methyl-5-(1,1,2,2,2-pentafluoroethyl)-4-(trifluoromethyl)pyrazol-3-yl]isoxazol-5-yl]benzamide], the mortality at 200 ppm in test [1] (setting [9]) is ≥ 80%; in test [3] (setting [10]), ≥ 80%; in test [8], ≥ 50%. Also, the pest or weed control at 200 ppm in test [2], in test [4] and in test [6] was ≥ 80% throughout. In test [7], the mortality at 12.5 ppm is ≥ 80%.
For the molecule `Cn1nc(C(F)(F)C(F)(F)F)c(C(F)(F)F)c1-c1cc(-c2ccc(Cl)c(C(=O)N[C@H]3C[C@@H]3C(F)(F)F)c2)on1` [Compound 80, 2-chloro-5-[3-[2-methyl-5-(1,1,2,2,2-pentafluoroethyl)-4-(trifluoromethyl)pyrazol-3-yl]isoxazol-5-yl]-N-[(1S,2S)-2-(trifluoromethyl)cyclopropyl]benzamide], the mortality at 200 ppm in test [1] (setting [9]) is ≥ 80%; in test [3] (setting [10]), ≥ 80%; in test [8] it was ≥ 50%. Further, the pest or weed control at 200 ppm in test [2], in test [4] and in test [6] was ≥ 80% each time. In addition, the mortality at 12.5 ppm in test [7] was ≥ 80%.
As for `Cn1nc(C(F)(F)C(F)(F)F)c(C(F)(F)F)c1-c1cc(-c2ccc(Cl)c(C(=O)NC3(C(N)=O)CC3)c2)on1` [Compound 77, N-(1-carbamoylcyclopropyl)-2-chloro-5-[3-[2-methyl-5-(1,1,2,2,2-pentafluoroethyl)-4-(trifluoromethyl)pyrazol-3-yl]isoxazol-5-yl]benzamide], the mortality at 200 ppm was ≥ 80% in test [1] (setting [9]) and ≥ 50% in test [8]. For the same molecule, the pest or weed control at 200 ppm in test [2], in test [4] and in test [6] was ≥ 80% throughout. The mortality at 12.5 ppm in test [7] and in test [5] (setting [11]) was ≥ 80% each time.
Turning to `Cn1cc(-c2c(C(F)(F)F)c(C(F)(F)C(F)(F)F)nn2C)nc1-c1ccc(Cl)c(C(=O)NC2CC2)c1` [Compound 29, 2-chloro-N-cyclopropyl-5-[1-methyl-4-[2-methyl-5-(1,1,2,2,2-pentafluoroethyl)-4-(trifluoromethyl)pyrazol-3-yl]imidazol-2-yl]benzamide], the mortality at 200 ppm in test [1] (setting [9]) and in test [3] (setting [10]) was ≥ 80% throughout. For the same molecule, the pest or weed control at 200 ppm in test [2] and in test [6] was ≥ 80% throughout. Besides, the mortality at 12.5 ppm in test [5] (setting [11]) is ≥ 80%.
Consider `Cn1nc(C(F)(F)C(F)(F)F)c(C(F)(F)F)c1-c1cc(-c2ccc(Cl)c(C(=O)NC3(C(=O)O)CC3)c2)on1` [Compound 75, 1-[[2-chloro-5-[3-[2-methyl-5-(1,1,2,2,2-pentafluoroethyl)-4-(trifluoromethyl)pyrazol-3-yl]isoxazol-5-yl]benzoyl]amino]cyclopropanecarboxylic acid], for which the values for the mortality at 200 ppm in test [3] (setting [10]) and in test [8] were ≥ 80% and ≥ 50%, respectively. In addition, the pest or weed control at 200 ppm in test [4] was ≥ 80%. Moreover, the mortality at 12.5 ppm in test [7] and in test [5] (setting [11]) was ≥ 80% each time.
As to `CCNC(=O)c1cc(-c2cc(-c3c(C(F)(F)F)c(C(F)(F)C(F)(F)F)nn3C)no2)ccc1Cl` [Compound 90, 2-chloro-N-ethyl-5-[3-[2-methyl-5-(1,1,2,2,2-pentafluoroethyl)-4-(trifluoromethyl)pyrazol-3-yl]isoxazol-5-yl]benzamide], the mortality at 200 ppm in test [1] (setting [9]) was ≥ 80%; in test [3] (setting [10]), ≥ 80%; in test [8], ≥ 50%. Also, the pest or weed control at 200 ppm in test [2], in test [4] and in test [6] was ≥ 80% in each case. Further, the mortality at 12.5 ppm in test [7] is ≥ 80%.
On to `Cn1nc(C(F)(F)C(F)(F)F)c(C(F)(F)F)c1-c1cc(-c2ccc(Cl)c(C(=O)NCC(F)(F)F)c2)on1` [Compound 96, 2-chloro-5-[3-[2-methyl-5-(1,1,2,2,2-pentafluoroethyl)-4-(trifluoromethyl)pyrazol-3-yl]isoxazol-5-yl]-N-(2,2,2-trifluoroethyl)benzamide], for which the mortality at 200 ppm in test [1] (setting [9]) and in test [3] (setting [10]) was ≥ 80% throughout. For the same molecule, the pest or weed control at 200 ppm in test [2] and in test [4] was ≥ 80% each time. In addition, the mortality at 12.5 ppm in test [5] (setting [11]) was ≥ 80%.
